Reference: patent US11391726B2, “MoT cells as a therapeutic screening tool for regulatory t-cell activity” (ARIZONA BOARD OF REGENTS ON BEHALF OF ARIZONA STATE …, priority 2018, dated 2022)
“Also recorded” adds a separate entry of the source.

Tests used:
MoT cells = test: CFSE suppression assay: Mabs pre-incubated with MoT cells, then co-cultured with CD3/28-stimulated CD4+ PBMC; type: cell-based, human; conditions: Mab pre-incubated with MoT cells 30 minutes, CD4+ PBMC:MoT ratio 1:1/2, CFSE flow cytometry (FIGS. 5D, 5F, 5H)
Protocol: (§1) Suppression assays. After IRB approval at Arizona State University (protocol #0601000548), peripheral blood was collected from healthy donors. After Ficoll-Paque Plus gradient separation of the buffy coat, CD4+ cells were purified using EasySep Human CD4^+ T Cell Isolation Kit (Catalog #17952 from Stemcell Technologies). Cells were allowed to rest overnight in cIMDM at 37° C. prior to labeling with CFSE (Carboxyfluorescein succinimidyl ester, from Cayman Chemica cat #10009853) dye to track cell divisions. The following day, CD4^+ T cells were counted, stained with CFSE, washed in PBS and then plated in IMDM with 10% FBS at 3×10^5 cells per well in a 48-well plate coated with OKT3 antibody at 5.0 ug/mL for 2 hours at 37° C. then washed twice in PBS before adding soluble co-stimulatory anti-CD28 (eBioscience clone CD28.6) at 5.0 ug/mL final concentration.
In some studies MoT and Jurkat cells were labeled with Cell Trace FarRed dye (Thermofisher) to gate MoT and Jurkat cells away from CD4^+ PBMC in flow cytometry analysis. Two-fold serial dilutions of MoT and Jurkat cells were added to CD4^+ PBMC, starting at 1.5×10^5 MoT and Jurkat cells (1:1/2 ratio CD4^+ T cells:tumor cells). Final volume per well was 1 mL. Cells were incubated for 5 days. […]

CD4+ PBMC = test: CFSE proliferation assay: Mabs co-incubated with CD3/28-stimulated CD4+ PBMC without MoT cells; type: cell-based, human; conditions: no MoT cells (FIGS. 5C, 5E, 5G)
Protocol: as §1
(FIG. 5A) Unstimulated PBMC. (FIG. 5B) CD3/28-stimulated CD4^+ PBMC cell division without MoT cells. (FIG. 5C) Anti-GITR, (FIG. 5E) Anti-CCR4 mogamulizumab, and (FIG. 5G) anti-PDL-1 (atezolizumab) co-incubated with PBMCs. (FIG. 5D) Anti-GITR, (FIG. 5F) anti-CCR4 (mogamulizumab), and (FIG. 5H) anti-PDL-1 (atezolizumab) co-incubated with PBMCs and MoT cells (1:½ ratio).

## atezolizumab
MoT cells
  reversal of MoT cell-mediated suppression of CD4+ PBMC proliferation: None of the checkpoint inhibitor Mabs including anti-GITR reversed MoT cell-mediated suppression; also recorded: did not reverse suppression
MoT cells; listed as anti-PD-L1
  reversal of MoT cell-mediated suppression of CD4+ PBMC proliferation: did not attenuate MoT Treg suppressive activity
CD4+ PBMC
  suppression or inhibition of CD4+ PBMC proliferation by the Mab alone: do not suppress or inhibit
